Measured values from PMC7751407, “Novel oxindole/benzofuran hybrids as potential dual CDK2/GSK-3β inhibitors targeting breast cancer: design, synthesis, biological evaluation, and in silico studies” (Journal of Enzyme Inhibition and Medicinal Chemistry, 2020).

Legend:
MCF-7 = experiment: MTT anti-proliferative assay, MCF-7 breast cancer cells; format: cell-based; conditions: Homo sapiens, MCF7, 48 h exposure, mean ± SD of three separate experiments
Protocol: (§1) 1. Anti-proliferative activity toward human breast cell lines
(§2) The two examined human breast cancer cell lines (T-47D and MCF-7) have been obtained from American Type Culture Collection (ATCC). Cells lines were maintained as monolayers in Dulbecco’s Modified Eagle’s Medium (DMEM) supplemented with 10% FBS, 2 mM L-glutamine, 100 U/ml penicillin and 100µg/ml streptomycin sulfate. Cells were sub-cultured with trypsine /EDTA solution, counted with haemocytometer and plated onto 96-well plates (5000 cells/well) and left overnight to form a semi-confluent monolayer. Cell monolayers were treated in quadrates with vehicle (DMSO, 0.1% v/v), test samples or Adriamycin as positive control for an exposure time of 48 h. At the end of exposure, MTT solution in PBS (5 mg/ml) was then added to all well including no cell blank and left to incubate for 90 min. The formation of formazan crystals were visually confirmed using phase contract microscopy. DMSO (100 µl/well) was added to dissolve the formazan crystals with shaking for 10 min after which the absorbance was read at 590 nm against no cell blanks on a FLuo Star Optima microplate reader (BMG technologies, Germany).
(§3) Cell proliferation was calculated comparing the OD values of the DMSO control wells and those of the samples represented as % proliferation to the control. Dose-response experiment was performed on samples producing > or =50% loss of cell proliferation using five serial 2-fold […]
(§4) IC50 values (concentration of sample causing 50% loss of cell proliferation of the vehicle control) were calculated using non-linear regression curve fitting of the dose response plots on GraphPad Prism V.6.0 software. […]

T-47D = experiment: MTT anti-proliferative assay, T-47D breast cancer cells; format: cell-based; conditions: Homo sapiens, T47D, 48 h exposure, mean ± SD of three separate experiments
Protocol: as §1, §2, §3, §4

CDK2 = biological target: T1, CDK2 (Homo sapiens, UniProt P24941); experiment: CDK2 kinase inhibition (CDK2 Kinase Enzyme System, Promega); format: biochemical; conditions: mean ± SD of three separate experiments
T1 construct: purchased Promega, Milan, Italy V2971
Protocol: (§5) 2. CDK2/GSK-3β Kinase Inhibitory Activities
(§6) The CDK2 and GSK-3β inhibitory activities were determined for hybrids 5a-g using the CDK2
(§7) Kinase Enzyme System (catalog No. V2971) (Promega, Milan, Italy), and GSK3β Assay Kit

GSK-3β = biological target: T2, GSK-3β (Homo sapiens, UniProt P49841); experiment: GSK-3β kinase inhibition (GSK3β Assay Kit, BPS Biosciences); format: biochemical; conditions: mean ± SD of three separate experiments
T2 construct: purchased BPS Biosciences, San Diego, CA, USA 79700
T2 sequence (P49841 whole entry): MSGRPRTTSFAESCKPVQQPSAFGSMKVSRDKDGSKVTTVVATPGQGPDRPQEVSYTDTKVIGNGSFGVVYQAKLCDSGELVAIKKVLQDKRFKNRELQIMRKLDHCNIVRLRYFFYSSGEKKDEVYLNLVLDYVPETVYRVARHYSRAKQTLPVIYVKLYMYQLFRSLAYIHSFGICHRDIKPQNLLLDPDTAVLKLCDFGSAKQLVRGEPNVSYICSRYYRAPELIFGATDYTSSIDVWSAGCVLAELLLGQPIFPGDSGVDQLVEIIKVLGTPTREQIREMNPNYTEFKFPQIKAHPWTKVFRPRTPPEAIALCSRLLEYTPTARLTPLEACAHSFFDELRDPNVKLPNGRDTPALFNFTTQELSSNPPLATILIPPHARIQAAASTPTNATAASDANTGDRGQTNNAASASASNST
Protocol: as §5, §6, §7

MCF-7 cells [1] = experiment: Annexin V-FITC/PI dual staining apoptosis assay in MCF-7 cells; format: cell-based, human; conditions: at IC50 concentration; for Late Apoptosis (Upper Right %): control 0.19; for Early Apoptosis (Lower Right %): control 0.63; for Total apoptosis (L.R % + U.R %): control 0.82; for Necrosis: upper left quadrant, control 0.49
Protocol: To investigate further the effect of the promising compounds 5d, 5e, and 5f on cell apoptosis, Annexin V-FITC/propidium iodide dual staining assay was performed according to the reported method. The morphological markers of apoptosis in the breast cancer MCF-7 cell line were examined before and after treatment with the compounds of interest. Apoptosis assay depends on the translocation of the phosphatidylserine (PS) phospholipid to the cell surface in cells undergoing apoptosis which can be easily detected by staining with the fluorescent conjugate of annexin V followed by flow cytometry analysis. Simultaneously, MCF-7 cells were stained with propidium iodide (PI) which could enter cells with damaged plasma membranes only. This enables the discrimination between early apoptotic cells (positive for PS, but negative for PI) from late apoptotic and necrotic cells (positive for both PS and PI). […]
4. Annexin V-FITC Apoptosis Assay
Phosphatidylserine externalization was assayed using Annexin V-FITC/PI apoptosis detection kit (BD Biosciences, USA) according to the manufacturer’s instructions. Breast cancer MCF-7 cells were cultured to a monolayer then treated with hybrids (5d, 5e and 5f) at their IC50 concentration. Briefly, cells were then harvested via trypsinization, and rinsed twice in PBS followed by binding buffer. Moreover, cells were re-suspended in 100 μL of binding buffer with the addition of 1 μL of FITC-Annexin V followed by an incubation period of 30 min at 4 °C. Cells were then rinsed in binding buffer and resuspended in 150 μL of binding buffer with the addition of 1 μL of DAPI (1 μg/μL in PBS). Cells were then analyzed using the flow cytometer BD FACS Canto II and the results were interpreted with FlowJo7.6.4 software (Tree Star, Ashland, OR,

MCF-10A = experiment: MTT cytotoxicity towards non-tumorigenic breast cells MCF-10A; format: cell-based, human; conditions: for IC50: Homo sapiens, MCF-10A, MTT assay, non-tumorigenic breast cell line; for Mean tumour selectivity index (S.I.): IC50 for MCF-10A/IC50 average for (MCF-7 and T-47D)
From the text: In order to investigate their selectivity on cancer cells, hybrids 5d, 5e and 5f, endowed with dual growth inhibitory action against MCF-7 and T-47D cells, were assesses for their cytotoxic action towards the non-tumorigenic breast cells (MCF-10A), via the MTT assay. The obtained IC50s and the calculated mean tumour selectivity index (S.I.); IC50 for MCF-10A/IC50 average for (MCF-7 and T-47D) have been presented in Table 5.
as §1, §2
Cell proliferation was calculated comparing the OD values of the DMSO control wells and those of the samples represented as % proliferation to the control. Dose-response experiment was performed on samples producing > or =50% loss of cell proliferation using five serial 2-fold dilutions (50, 25, 12.5, 6.25 and 3.125 µM) of the sample. IC50 values (concentration of sample causing 50% loss of cell proliferation of the vehicle control) were calculated using non-linear regression curve fitting of the dose response plots on GraphPad Prism V.6.0 software. […]

MCF-7 cells [2] = experiment: Cell cycle analysis by flow cytometry (PI stain) in MCF-7 cells; format: cell-based, human; conditions: 24 h, at IC50 concentration; for %Sub-G1: control 1.29; for %G2/M: control 11.3; for %S: control 33.82; for %G0-G1: control 53.59
Protocol: Compounds showing promising antiproliferative as well as kinase inhibitory activity 5d, 5e and 5f were further investigated for their influence on the cell cycle progression by flow cytometry analysis using propidium iodide (PI) stain. Cell cycle parameters were compared for the breast cancer MCF-7 cells with DMSO as control and after treatment with the compounds of interest and incubation for 24 h, and the results were presented in Figure 5 and Table 3. […]
concentration), and then cells were washed twice with ice-cold phosphate buffered saline (PBS).
Subsequently, the treated cells were collected by centrifugation, fixed in ice-cold 70% (v/v) ethanol, washed with PBS, re-suspended with 100 μg/mL RNase, stained with 40 μg/mL PI, and analyzed by flow cytometry using FACS Calibur (Becton Dickinson, BD, Franklin Lakes, NJ,

For `C=CCN1C(=O)C(=NNC(=O)c2cc3cc(Br)ccc3o2)c2ccccc21` [7b, N'-(1-Allyl-2-oxoindolin-3-ylidene)-5-bromobenzofuran-2-carbohydrazide], the melting point was 207 to 209 °C, the IC50 (MCF-7) was 2.64 ± 0.07 µM and the IC50 (T-47D) was 12.2 ± 0.4 µM.

With `O=C1Nc2ccc(F)cc2C1=NNC(=O)c1cc2cc(Br)ccc2o1` [5b, 5-Bromo-N'-(5-fluoro-2-oxoindolin-3-ylidene)benzofuran-2-carbohydrazide] the melting point was > 300 °C, the IC50 (CDK2) was 0.0525 ± 0.0029 µM and the IC50 (GSK-3β) was 0.212 ± 0.012 µM. For the same compound, the IC50 (MCF-7) was 12.9 ± 0.38 µM and the IC50 (T-47D) was 1.27 ± 0.04 µM.

For `CN1C(=O)C(=NNC(=O)c2cc3cc(Br)ccc3o2)c2ccccc21` [7a, 5-Bromo-N'-(1-methyl-2-oxoindolin-3-ylidene)benzofuran-2-carbohydrazide], the melting point was 260 to 262 °C, the IC50 (MCF-7) was 10.4 ± 1.01 µM and the IC50 (T-47D) was 11.8 ± 1.05 µM.

With `Cc1cc(C)c2c(c1)C(=NNC(=O)c1cc3cc(Br)ccc3o1)C(=O)N2` [5g, 5-Bromo-N'-(5,7-dimethyl-2-oxoindolin-3-ylidene)benzofuran-2-carbohydrazide] the melting point was > 300 °C, the IC50 (CDK2) was 0.105 ± 0.0057 µM and the IC50 (GSK-3β) was 0.0755 ± 0.0041 µM. The IC50 (MCF-7) was 12 ± 0.35 µM and the IC50 (T-47D) was 6.65 ± 0.21 µM.

With `O=C(NN=C1C(=O)N(Cc2ccccc2)c2ccccc21)c1cc2cc(Br)ccc2o1` [7e, N'-(1-Benzyl-2-oxoindolin-3-ylidene)-5-bromobenzofuran-2-carbohydrazide] the melting point was 248 to 250 °C, the IC50 (MCF-7) was 8.33 ± 0.24 µM and the IC50 (T-47D) was 11.8 ± 0.38 µM.

With `O=C1Nc2ccccc2C1=NNC(=O)c1cc2cc(Br)ccc2o1` [5a, 5-Bromo-N'-(2-oxoindolin-3-ylidene)benzofuran-2-carbohydrazide] the melting point was > 300 °C, the IC50 (CDK2) was 0.141 ± 0.0077 µM and the IC50 (GSK-3β) was 0.137 ± 0.0075 µM. It also gave an IC50 (MCF-7) of 5.47 ± 0.16 µM and an IC50 (T-47D) of 9.67 ± 0.31 µM.

In the case of `Cc1ccc2c(c1)C(=NNC(=O)c1cc3cc(Br)ccc3o1)C(=O)N2` [5e, 5-Bromo-N'-(5-methyl-2-oxoindolin-3-ylidene)benzofuran-2-carbohydrazide], the “Late Apoptosis (Upper Right %)” value (MCF-7 cells [1]) is reported as 15.08%, the “Early Apoptosis (Lower Right %)” value (MCF-7 cells [1]) is reported as 4.66% and the “Total apoptosis (L.R % + U.R %)” value (MCF-7 cells [1]) is reported as 19.74%. For the same compound, the Necrosis (MCF-7 cells [1]) was 1.81%, the melting point was > 300 °C and the IC50 (MCF-10A) was 23.6 ± 0.86 µM. The “Mean tumour selectivity index (S.I.)” value (MCF-10A) was 5.9, the IC50 (CDK2) was 0.177 ± 0.0096 µM and the IC50 (GSK-3β) was 0.0808 ± 0.0044 µM. The “%Sub-G1” value (MCF-7 cells [2]) was 17.73%, the “%G2/M” value (MCF-7 cells [2]) was 29.21% and the “%S” value (MCF-7 cells [2]) was 23.21%. For the same compound, the “%G0-G1” value (MCF-7 cells [2]) was 29.85%, the IC50 (MCF-7) was 3.45 ± 0.1 µM and the IC50 (T-47D) was 4.53 ± 0.14 µM.

With `CC(C)CN1C(=O)C(=NNC(=O)Nc2cc3cc(Br)ccc3o2)c2ccccc21` [13a, N-(5-Bromobenzofuran-2-yl)-2–(1-isobutyl-2-oxoindolin-3-ylidene)hydrazine-1-carboxamide] the melting point was 208 to 210 °C, the IC50 (MCF-7) was 18.2 ± 0.53 µM and the IC50 (T-47D) was 3.22 ± 0.1 µM.

In the case of `O=C1Nc2ccc(Cl)cc2C1=NNC(=O)c1cc2cc(Br)ccc2o1` [5c, 5-Bromo-N'-(5-chloro-2-oxoindolin-3-ylidene)benzofuran-2-carbohydrazide], the melting point is reported as > 300 °C, the IC50 (CDK2) is reported as 0.0854 ± 0.0046 µM and the IC50 (GSK-3β) is reported as 0.102 ± 0.0056 µM. The IC50 (MCF-7) was 12.5 ± 0.37 µM and the IC50 (T-47D) was 6.03 ± 0.19 µM.

With `CC(C)CN1C(=O)C(=NNC(=O)c2cc3cc(Br)ccc3o2)c2cc(Br)ccc21` [7g, 5-Bromo-N'-(5-bromo-1-isobutyl-2-oxoindolin-3-ylidene)benzofuran-2-carbohydrazide] the melting point was 244 to 246 °C, the IC50 (MCF-7) was 24.8 ± 0.73 µM and the IC50 (T-47D) was 9.67 ± 0.31 µM.

In the case of `O=C1Nc2ccc(Br)cc2C1=NNC(=O)c1cc2cc(Br)ccc2o1` [5d, 5-Bromo-N'-(5-bromo-2-oxoindolin-3-ylidene)benzofuran-2-carbohydrazide], the “Late Apoptosis (Upper Right %)” value (MCF-7 cells [1]) is reported as 10.14%, the “Early Apoptosis (Lower Right %)” value (MCF-7 cells [1]) is reported as 3.61% and the “Total apoptosis (L.R % + U.R %)” value (MCF-7 cells [1]) is reported as 13.75%. The Necrosis (MCF-7 cells [1]) was 1.56%, the melting point was > 300 °C and the IC50 (MCF-10A) was 21.7 ± 1.05 µM. The “Mean tumour selectivity index (S.I.)” value (MCF-10A) was 6.0, the IC50 (CDK2) was 0.0378 ± 0.0021 µM and the IC50 (GSK-3β) was 0.0321 ± 0.0017 µM. For the same compound, the “%Sub-G1” value (MCF-7 cells [2]) was 13.27%, the “%G2/M” value (MCF-7 cells [2]) was 30.26% and the “%S” value (MCF-7 cells [2]) was 22.5%. The “%G0-G1” value (MCF-7 cells [2]) was 33.97%, the IC50 (MCF-7) was 3.41 ± 0.1 µM and the IC50 (T-47D) was 3.82 ± 0.12 µM.

With `O=C(NN=C1C(=O)N(Cc2ccccc2)c2ccc(Br)cc21)c1cc2cc(Br)ccc2o1` [7h, N'-(1-Benzyl-5-bromo-2-oxoindolin-3-ylidene)-5-bromobenzofuran-2-carbohydrazide] the melting point was 236 to 237 °C, the IC50 (MCF-7) was 4.32 ± 0.12 µM and the IC50 (T-47D) was 1.72 ± 0.04 µM.

`O=C(NN=C1C(=O)N(CCc2ccccc2)c2ccccc21)c1cc2cc(Br)ccc2o1` [7f, 5-Bromo-N'-(2-oxo-1-phenethylindolin-3-ylidene)benzofuran-2-carbohydrazide] gave a melting point of 239 to 241 °C, an IC50 (MCF-7) of 24.7 ± 0.72 µM and an IC50 (T-47D) of 38.7 ± 1.26 µM.

Compound `O=C(NN=C1C(=O)N(Cc2ccccc2)c2ccccc21)Nc1cc2cc(Br)ccc2o1` [13b, 2–(1-Benzyl-2-oxoindolin-3-ylidene)-N-(5-bromobenzofuran-2-yl)hydrazine-1-carboxamide] has a melting point of 217 to 219 °C, an IC50 (MCF-7) of 5.7 ± 0.16 µM and an IC50 (T-47D) of 10.9 ± 0.35 µM.

`CCOC(=O)CN1C(=O)C(=NNC(=O)c2cc3cc(Br)ccc3o2)c2ccccc21` [7d, Ethyl-2–(3-(2–(5-bromobenzofuran-2-carbonyl)hydrazono)-2-oxoindolin-1-yl)acetate] showed a melting point of 215 to 216 °C, an IC50 (MCF-7) of 7.48 ± 0.22 µM and an IC50 (T-47D) of 19 ± 0.62 µM.

Compound `CC(C)CN1C(=O)C(=NNC(=O)c2cc3cc(Br)ccc3o2)c2ccccc21` [7c, 5-Bromo-N'-(1-isobutyl-2-oxoindolin-3-ylidene)benzofuran-2-carbohydrazide] has a melting point of 216 to 218 °C, an IC50 (MCF-7) of 37 ± 1.87 µM and an IC50 (T-47D) of 43.3 ± 2.39 µM.
